Assay results: patent US9630939B2, “Derivative of homoserine lactone, and preparation method and use thereof” (priority 2013, dated 2017)

How the values were obtained:
C. violaceum CV026 [1] = assay: Preliminary screening of bacterial quorum sensing agonistic / inhibitory activity on LB plate (purple stain / white circle); type: cell-based; details: for Regulatory activity (bacterial quorum sensing): 1 μl of 0.065M compound spotted on LB plate with C. violaceum CV026, without (agonistic) or with inducer C6-HSL (inhibitory), 30° C., 16-18 h
Protocol: 1.1 Preparation work: different compounds to be tested (Compounds 1-29 prepared in Example 1-29 and intermediates 1-3) were weighted and then were dissolved in 200 μl DMSO (dimethyl sulfoxide) to prepare a solution at a concentration of 0.065M. 5.0 mg inducer, N-hexanoyl homoserine lactone (C6-HSL, purchased from Sigma Company), was weighted and was dissolved in 200 μl DMSO (at a concentration of 0.125M), and the compounds and the inducer were stored at 4[…] for further use. C. violaceum CV026 (donated by Professor McLean J C from Texas State University) in LB culture medium (LB culture medium consisting of 1% (percentage by mass) tryptone, 0.5% (percentage by mass) yeast extract, 1% (percentage by mass) NaCl and water) was cultured under shaking in a shaker at 30 °C, 200 rpm to get the culture medium for further use.
1.2 Method for preliminary screening of compounds having agonistic activity: 400 μl C. violaceum CV026 (at a bacterial concentration of 1×10^8/ml) was added to 5 ml melted semi-solid LB culture medium, and was mixed well; the mixed culture medium was poured into a solid LB plate; when the mixed culture medium was solidified on the plate, lattice was made thereon; 1 μl of the dissolved compounds to be tested (Compounds 1-29 in Examples 1-29, at a concentration of 0.065M) was spotted on the plate; when the compounds on the plate was dried in air, the plate was put in a 30° C. oven upside down and was cultured for a period of 16-18 h. If the compound to be tested has an agonistic effect on C. violaceum CV026 on the LB plate, purple stain will be induced on the LB plate. The agonistic activity of a compound is determined depending on whether purple stain is induced for C. violaceum CV026 on LB plate as well as the purple depth.
1.3 Method for preliminary screening of compounds having inhibitory activity: the inducer C6—HSL was diluted gradiently to 1000 times by means of 2-fold dilution; 15 μl diluted inducer and 400 μl C. violaceum CV026 in exponential phase (at a bacterial concentration of 1×10^8/ml) were mixed well and then were added to a 5 ml melted semi-solid LB culture medium; the mixture of inducer, C. violaceum, and semi-solid LB was poured onto a solid LB plate; when the mixture was solidified on the plate, lattice was made thereon; 1 μl of the dissolved compounds to be tested (Compounds 1-29 prepared in Example 1-29 and intermediates 1-3, at a concentration of 0.065M) was spotted on the plate; when the compounds on the plate were dried in air, the plate was put in a 30° C. oven upside down and was cultured for a period of 16-18 h. […] The inhibitory activity of a compound is preliminary determined depending on the size of the white circle appeared after C. violaceum CV026 was inhibited on LB plate.

C. violaceum CV026 [2] = assay: Measurement of IC50 of compounds having an inhibitory effect on C. violaceum quorum sensing (purple pigment absorbance at 585 nm); type: cell-based; details: Chromobacterium violaceum, read-out: IC50 of compounds having bacterial quorum sensing inhibitory activity
Protocol: 2.1 The wells of a 12-well plate were marked as initial concentration, 2, 4, 8, 16, 32, 64, 128, 256, DMSO group, and a blank control group from left to right and from up to bottom, respectively.
2.2 The monoclonal C. violaceum CV026 grew on LB solid plate was cultured to exponational phase in a 5 ml fresh LB liquid culture medium, 50 μl was then taken for seeding in a 5 ml LB culture medium, and was cultured until the optical density OD value was about 1.0 at 585 nm; the culture was then mixed well with LB culture medium at a ratio of 1:9 by volume (with OD of about 0.15), and was added to a 12-well plate in an amount of 2 ml/well.
2.3 The compounds preliminarily screened to have quorum sensing inhibitory activity were dissolved respectively in DMSO (at a concentration of 0.065M), and then 10 μl was taken into 10 μl DMSO solution to achieve the purpose of 2-fold dilution, and so on. Each compound was gradiently diluted to a highest fold of 256 (gradient dilution of 2, 4, 8, 16, 32, 64, 128, 256 fold).
2.4 To each well, 15 μl 1000-fold diluted inducer C6—HSL (initial concentration of 0.125M) and 8 μl compound solution at each diluted gradient was added; to DMSO control group, 8 μl DMSO was added; to a blank control group, 8 μl LB culture medium was added. Finally, it was ensured that 2 ml culture in each of the 12-well plate was mixed well.
2.5 The 12-well plate was placed in a 30° C. shaker at 130 rpm and was cultured for 10-12 h.
2.6 After the culture was finished, 1 ml culture was taken from each well and was put in a 1.5 ml EP tube and then was centrifugated at 12000 rpm for 10 mins. The supernatant of the culture was sucked out, and 500 μl DMSO was added to each EP tube to dissolve the purple pigment in the culture. After the pigment was completely dissolved, centrifugation was performed at 12000 rpm for 10 mins. 200 μl supernatant pigment was put in a 96-well culture plate, and was measured for absorbance value at 585 nm by a Microplate Reader, […] the absorbance value and the corresponding concentration were plotted to get the IC50 value.

CCCCCCC(=O)Nc1ccc(S(=O)(=O)N[C@H]2CCOC2=O)cc1 [Compound 5, (S)-N-(4-(N-(2-oxotetrahydrofuran-3-yl)sulfamoyl)phenyl)heptamide]
melting point: 143 to 144 °C | Regulatory activity (bacterial quorum sensing) (C. violaceum CV026 [1]): −

CCCC(=O)Nc1ccc(S(=O)(=O)N[C@H]2CCOC2=O)cc1 [Compound 2, (S)-N-(4-(N-(2-oxotetrahydrofuran-3-yl)sulfamoyl)phenyl)butyrylamide]
melting point: 180 to 182 °C | Regulatory activity (bacterial quorum sensing) (C. violaceum CV026 [1]): −

CC(C)(C)c1ccc(C(=O)Nc2ccc(S(=O)(=O)N[C@H]3CCOC3=O)cc2)cc1 [Compound 16, (S)-4-(tert-butyl)-N-(4-(N-(2-oxotetrahydrofuran-3-yl)sulfamoyl)phenyl)benzamide]
melting point: 207 to 208 °C | Regulatory activity (bacterial quorum sensing) (C. violaceum CV026 [1]): −

N#Cc1ccc(C(=O)Nc2ccc(S(=O)(=O)N[C@H]3CCOC3=O)cc2)cc1
melting point: 230 to 231 °C

CCCCCCCC(=O)Nc1ccc(S(=O)(=O)N[C@H]2CCOC2=O)cc1 [Compound 6, (S)-N-(4-(N-(2-oxotetrahydrofuran-3-yl)sulfamoyl)phenyl)octanamide]
melting point: 146 to 148 °C | Regulatory activity (bacterial quorum sensing) (C. violaceum CV026 [1]): −

CC(=O)Nc1ccc(S(=O)(=O)N[C@H]2CCOC2=O)cc1 [Intermediate 2, (S)-N-(4-(N-(2-oxotetrahydrofuran-3-yl)sulfamoyl)phenyl)acetamide]
Regulatory activity (bacterial quorum sensing) (C. violaceum CV026 [1]): −

O=C(Nc1ccc(S(=O)(=O)N[C@H]2CCOC2=O)cc1)c1ccccc1 [Compound 9, (S)-N-(4-(N-(2-oxotetrahydrofuran-3-yl)sulfamoyl)phenyl)benzamide]
Regulatory activity (bacterial quorum sensing) (C. violaceum CV026 [1]): − | IC50 (C. violaceum CV026 [2]): 17.2 ± 2.6 µM

O=C(Nc1ccc(S(=O)(=O)N[C@H]2CCOC2=O)cc1)c1ccc(Cl)cc1 [Compound 14, (S)-4-chloro-N-(4-(N-(2-oxotetrahydrofuran-3-yl)sulfamoyl)phenyl)benzamide]
Regulatory activity (bacterial quorum sensing) (C. violaceum CV026 [1]): −

CCCCCCCCC(=O)Nc1ccc(S(=O)(=O)N[C@H]2CCOC2=O)cc1
melting point: 150 to 152 °C

CCC(=O)Nc1ccc(S(=O)(=O)N[C@H]2CCOC2=O)cc1 [Compound 1, (S)-N-(4-(N-(2-oxotetrahydrofuran-3-yl)sulfamoyl)phenyl) propanamide]
melting point: 179 to 181 °C | Regulatory activity (bacterial quorum sensing) (C. violaceum CV026 [1]): −

O=C(Nc1ccc(S(=O)(=O)N[C@H]2CCOC2=O)cc1)c1ccc(CCl)cc1 [Compound 15, (S)-4-(chloromethyl)-N-(4-(N-(2-oxotetrahydrofuran-3-yl)sulfamoyl)phenyl)benzamide]
melting point: 251 to 253 °C | inhibitory or agonizing effect on bacterial quorum sensing (in words) (C. violaceum CV026 [1]): agonizing effect | Regulatory activity (bacterial quorum sensing) (C. violaceum CV026 [1]): +

CCCCC(=O)Nc1ccc(S(=O)(=O)N[C@H]2CCOC2=O)cc1 [Compound 3, (S)-N-(4-(N-(2-oxotetrahydrofuran-3-yl)sulfamoyl)phenyl)pentanamide]
melting point: 174 to 176 °C | Regulatory activity (bacterial quorum sensing) (C. violaceum CV026 [1]): −

CCCCCC(=O)Nc1ccc(S(=O)(=O)N[C@H]2CCOC2=O)cc1 [Compound 4, (S)-N-(4-(N-(2-oxotetrahydrofuran-3-yl)sulfamoyl)phenyl)hexanamide]
melting point: 142 to 143 °C | Regulatory activity (bacterial quorum sensing) (C. violaceum CV026 [1]): − | IC50 (C. violaceum CV026 [2]): 29 ± 2.41 µM

O=C(Nc1ccc(S(=O)(=O)N[C@H]2CCOC2=O)cc1)c1ccc([N+](=O)[O-])cc1
melting point: 257 to 258 °C

O=C(Nc1ccc(S(=O)(=O)N[C@H]2CCOC2=O)cc1)c1cccc(Cl)c1 [Compound 22, (S)-3-chloro-N-(4-(N-(2-oxotetrahydrofuran-3-yl)sulfamoyl)phenyl)benzamide]
melting point: 213 to 214 °C | Regulatory activity (bacterial quorum sensing) (C. violaceum CV026 [1]): −

O=C(Nc1ccc(S(=O)(=O)N[C@H]2CCOC2=O)cc1)c1cccc(F)c1 [Compound 23, (S)-3-fluoro-N-(4-(N-(2-oxotetrahydrofuran-3-yl)sulfamoyl)phenyl)benzamide]
Regulatory activity (bacterial quorum sensing) (C. violaceum CV026 [1]): − | IC50 (C. violaceum CV026 [2]): 7.79 ± 2.68 µM

Br.NC1CCOC1=O (stereo not drawn) [Intermediate 1, (L)-homoserine lactone hydrobromide]
Regulatory activity (bacterial quorum sensing) (C. violaceum CV026 [1]): +

O=C(Nc1ccc(S(=O)(=O)N[C@H]2CCOC2=O)cc1)c1ccc(Br)cc1 [Compound 12, (S)-4-bromo-N-(4-(N-(2-oxotetrahydrofuran-3-yl)sulfamoyl)phenyl)benzamide]
melting point: 112 to 113 °C | inhibitory or agonizing effect on bacterial quorum sensing (in words) (C. violaceum CV026 [1]): both an agonizing effect and an inhibitory effect | Regulatory activity (bacterial quorum sensing) (C. violaceum CV026 [1]): ±

O=C(Cc1ccccc1)Nc1ccc(S(=O)(=O)N[C@H]2CCOC2=O)cc1
melting point: 157 to 158 °C

O=C(Nc1ccc(S(=O)(=O)N[C@H]2CCOC2=O)cc1)c1ccc(F)cc1 [Compound 17, (S)-4-fluoro-N-(4-(N-(2-oxotetrahydrofuran-3-yl)sulfamoyl)phenyl)benzamide]
melting point: 236 to 237 °C | Regulatory activity (bacterial quorum sensing) (C. violaceum CV026 [1]): − | IC50 (C. violaceum CV026 [2]): 14.7 ± 2.58 µM

CCCc1ccc(C(=O)Nc2ccc(S(=O)(=O)N[C@H]3CCOC3=O)cc2)cc1
melting point: 247 to 249 °C

O=C(Nc1ccc(S(=O)(=O)N[C@H]2CCOC2=O)cc1)c1ccccc1C(F)(F)F [Compound 27, (S)-2-trifluoromethyl-N-(4-(N-(2-oxotetrahydrofuran-3-yl)sulfamoyl)phenyl)benzamide]
melting point: 186 to 187 °C | Regulatory activity (bacterial quorum sensing) (C. violaceum CV026 [1]): − | IC50 (C. violaceum CV026 [2]): 4.91 ± 0.97 µM

CCOc1ccc(C(=O)Nc2ccc(S(=O)(=O)N[C@H]3CCOC3=O)cc2)cc1
melting point: 256 to 258 °C

O=C(Nc1ccc(S(=O)(=O)N[C@H]2CCOC2=O)cc1)c1ccccc1Cl [Compound 28, (S)-2-chloro-N-(4-(N-(2-oxotetrahydrofuran-3-yl)sulfamoyl)phenyl)benzamide]
Regulatory activity (bacterial quorum sensing) (C. violaceum CV026 [1]): − | IC50 (C. violaceum CV026 [2]): 1.66 ± 0.33 µM

O=C(Nc1ccc(S(=O)(=O)N[C@H]2CCOC2=O)cc1)c1ccccc1F [Compound 24, (S)-2-fluoro-N-(4-(N-(2-oxotetrahydrofuran-3-yl)sulfamoyl)phenyl)benzamide]
Regulatory activity (bacterial quorum sensing) (C. violaceum CV026 [1]): − | IC50 (C. violaceum CV026 [2]): 1.64 ± 0.27 µM

Cc1cccc(C(=O)Nc2ccc(S(=O)(=O)N[C@H]3CCOC3=O)cc2)c1 [Compound 20, (S)-3-methyl-N-(4-(N-(2-oxotetrahydrofuran-3-yl)sulfamoyl)phenyl)benzamide]
melting point: 193 to 194 °C | Regulatory activity (bacterial quorum sensing) (C. violaceum CV026 [1]): −
